Experimental findings from US8648086B2, “5,6-bicyclic heteroaryl-containing urea compounds as kinase inhibitors” (Ascepion Pharmaceuticals, Inc., priority 2009, dated 2014) are described below.

One assay concerns the target T1, PDGFRβ (Homo sapiens, UniProt P09619).
T1 construct: expressed in transfected cells; host or cells: CHO cells, pcDNA3.1 plasmid
Put plainly: PDGFRβ cell-based assay (phospho-PDGFRβ ELISA, transfected CHO cells). The settings on record: compound at 100 nM, read-out: % PDGFRβ kinase activity remains. The protocol: A standard cell-based assay for PDGFRβ kinase activity can be used to test a compound of this invention and to identify PDGFRβ antagonists.
Specifically, a compound to be tested was first dissolved in DMSO to a concentration of 10 mM and stored at −20° C. The activity of PDGFRβ in cells depends on the phosphorylation level of its intracellular domain induced by the ligand. In order to express PDGFRβ in the cell, full length PDGFRβ sequence was cloned into PC-DNA3.1 vector. The plasmid was then transfected into CHO cells. After 48 hours following the transfection, the expression of PDGFRβ in transfected CHO cells was confirmed by regular western blotting.
To screen the compound of this invention, the ELISA kit (R&D Systems, Minneapolis, Minn., USA) was used. One day before the screening, CHO cells transfected with full length PDGFRβ plasmid were grown in DMEM medium without the presence of serum. On the day of screening, various concentrations of compounds (from 0.5 nM to 500 nM) were added into DMEM medium. Two hours later, 20% of FBS (Fetal Bovine Serum) was added into the medium to stimulate the expression of phosphor-PDGFRβ. Cell lysate from approximately 5×10^5 transfected CHO cells were reacted with anti-phosphor-PDGFRβ or anti-total PDGFRβ antibody in 96 well plates, in the presence of detection antibody, the phosphor-PDGFRβ or total PDGFRβ were detected with Streptavidin-HRP (R&D Systems), followed by chemiluminescent detection.

For the next assay, the target named is T2, VEGFR2 (Homo sapiens, UniProt P35968).
T2 construct: expressed in transfected cells; host or cells: CHO cells, pcDNA3.1 plasmid
The assay is described as follows: VEGFR2 cell-based assay (phospho-VEGFR2 ELISA, transfected CHO cells). The settings on record: compound at 100 nM, read-out: % VEGFR2 kinase activity remains. The method, then:
A standard cell-based assay for VEGFR2 kinase activity can be used to test compounds of this invention and to identify VEGFR2 antagonists.
Specifically, a compound to be tested was first dissolved in DMSO to a concentration of 10 mM and stored at −20° C. The activity of VEGFR2 in cells depends on the phosphorylation level at its intracellular domain induced by the ligand. In order to express VEGFR2 in the cells, full length VEGFR2 sequence was cloned into PC-DNA3.1 vector, the plasmid was then transfected into CHO cells. After 48 hours, the expression of VEGFR2 in transfected CHO cells was confirmed by regular western blotting.
To screen the compounds of this invention, the ELISA kit (R&D Systems) was used. One day before the screening, CHO cells transfected with full length VEGFR2 plasmid were grown in DMEM medium without the presence of serum. On the day of screening, various concentrations of compounds (From 0.5 nM to 500 nM) were added into DMEM medium. Two hours later, 20% of FBS (Fetal Bovine Serum) was added into the medium to stimulate the production of phosphor-VEGFR2. Cell lysate from approximately 5×10^5 transfected CHO cells were reacted with anti-phosphor-VEGFR2 or anti-total VEGFR2 antibody in 96 well plates. In the presence of detection antibody, the phosphor-VEGFR2 or total VEGFR2 were detected with Streptavidin-HRP (R&D Systems) followed by chemiluminescence detection.
For orientation: An ELISA detects its analyte on a solid surface through an enzyme-linked reagent.

A further assay addresses T3, c-Met (Homo sapiens, UniProt P08581).
T3 construct: endogenous in cells; host or cells: A549 cells
The assay is described as follows: c-Met cell-based assay (phospho-c-Met ELISA, A549 cells). The settings on record: compound at 100 nM. The protocol: A procedure for standard cell-based assay for c-Met kinase activity can be used to test compounds of this invention for their inhibitory effect on this kinase and to identify c-Met antagonists.
Specifically, a compound to be tested was first dissolved in DMSO to a concentration of 10 mM and stored at −20° C. The activity of c-Met in cells depends on the phosphorylation level at its intracellular domain induced by its ligand, Hepatocyte growth factor (HGF). In order to induce the cells to produce phosphate c-Met, paracrine HGF-dependent NSCLC (None Small Cell Lung Cancer) A549 cells were grown in DMEM with 10% FBS.
To screen compounds of this invention for their inhibitory effect on c-Met kinase, the ELISA kit (R&D Systems) was used. One day before screening procedure, A549 cells were grown in DMEM without the presence of serum. On the day of screening procedure, various concentrations of compounds (from 0.5 nM to 500 nM) were added into the culture medium. Two hours later, 20% of FBS (Fetal Bovine Serum) was added into the medium to stimulate the expression of phosphor-c-Met. After 20 minutes, cell lysate from approximately 5×10^5 A549 cells were reacted with anti-phosphor-c-Met or anti total c-Met antibody in 96 well plates. In the presence of detection antibody, the phosphor-c-Met or total c-Met can be detected with Streptavidin-HRP (R&D Systems) followed by chemiluminescence detection.

Counter-ions that a name gives are not always drawn.

T3 sequence (P08581 25-1390): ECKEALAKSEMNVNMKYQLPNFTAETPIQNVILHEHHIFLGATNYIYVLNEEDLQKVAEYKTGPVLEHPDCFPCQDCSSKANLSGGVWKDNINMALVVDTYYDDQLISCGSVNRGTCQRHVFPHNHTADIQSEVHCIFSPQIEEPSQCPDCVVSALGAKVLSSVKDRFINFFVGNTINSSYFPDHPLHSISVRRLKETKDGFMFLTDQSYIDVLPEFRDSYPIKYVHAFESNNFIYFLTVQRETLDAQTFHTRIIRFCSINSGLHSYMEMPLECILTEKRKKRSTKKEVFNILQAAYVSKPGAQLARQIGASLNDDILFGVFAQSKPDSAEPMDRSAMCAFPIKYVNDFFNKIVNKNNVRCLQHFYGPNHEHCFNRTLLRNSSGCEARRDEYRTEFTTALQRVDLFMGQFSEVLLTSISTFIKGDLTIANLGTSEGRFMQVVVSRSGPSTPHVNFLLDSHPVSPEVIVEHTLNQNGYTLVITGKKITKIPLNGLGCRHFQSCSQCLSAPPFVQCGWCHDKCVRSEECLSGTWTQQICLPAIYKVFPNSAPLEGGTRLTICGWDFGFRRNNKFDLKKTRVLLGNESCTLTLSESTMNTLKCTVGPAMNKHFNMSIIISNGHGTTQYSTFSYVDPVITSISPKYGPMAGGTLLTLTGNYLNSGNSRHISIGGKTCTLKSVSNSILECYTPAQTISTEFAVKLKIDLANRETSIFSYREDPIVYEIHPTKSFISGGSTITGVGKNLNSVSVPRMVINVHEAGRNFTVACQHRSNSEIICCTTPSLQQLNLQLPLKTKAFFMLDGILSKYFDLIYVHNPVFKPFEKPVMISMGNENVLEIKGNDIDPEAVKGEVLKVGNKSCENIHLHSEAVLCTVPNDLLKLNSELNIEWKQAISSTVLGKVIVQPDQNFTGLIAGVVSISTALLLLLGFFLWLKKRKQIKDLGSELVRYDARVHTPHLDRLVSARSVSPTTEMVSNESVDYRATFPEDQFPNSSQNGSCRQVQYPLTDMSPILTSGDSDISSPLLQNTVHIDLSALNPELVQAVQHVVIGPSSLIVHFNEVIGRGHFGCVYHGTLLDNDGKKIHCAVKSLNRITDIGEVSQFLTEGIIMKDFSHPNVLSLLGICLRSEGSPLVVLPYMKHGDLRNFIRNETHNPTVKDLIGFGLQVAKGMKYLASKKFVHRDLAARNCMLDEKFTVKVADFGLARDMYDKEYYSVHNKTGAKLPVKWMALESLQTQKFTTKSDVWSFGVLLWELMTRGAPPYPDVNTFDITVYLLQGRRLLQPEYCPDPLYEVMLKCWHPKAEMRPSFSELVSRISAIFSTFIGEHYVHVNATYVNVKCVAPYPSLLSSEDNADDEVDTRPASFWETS
T2 sequence (P35968 20-1356, species assumed): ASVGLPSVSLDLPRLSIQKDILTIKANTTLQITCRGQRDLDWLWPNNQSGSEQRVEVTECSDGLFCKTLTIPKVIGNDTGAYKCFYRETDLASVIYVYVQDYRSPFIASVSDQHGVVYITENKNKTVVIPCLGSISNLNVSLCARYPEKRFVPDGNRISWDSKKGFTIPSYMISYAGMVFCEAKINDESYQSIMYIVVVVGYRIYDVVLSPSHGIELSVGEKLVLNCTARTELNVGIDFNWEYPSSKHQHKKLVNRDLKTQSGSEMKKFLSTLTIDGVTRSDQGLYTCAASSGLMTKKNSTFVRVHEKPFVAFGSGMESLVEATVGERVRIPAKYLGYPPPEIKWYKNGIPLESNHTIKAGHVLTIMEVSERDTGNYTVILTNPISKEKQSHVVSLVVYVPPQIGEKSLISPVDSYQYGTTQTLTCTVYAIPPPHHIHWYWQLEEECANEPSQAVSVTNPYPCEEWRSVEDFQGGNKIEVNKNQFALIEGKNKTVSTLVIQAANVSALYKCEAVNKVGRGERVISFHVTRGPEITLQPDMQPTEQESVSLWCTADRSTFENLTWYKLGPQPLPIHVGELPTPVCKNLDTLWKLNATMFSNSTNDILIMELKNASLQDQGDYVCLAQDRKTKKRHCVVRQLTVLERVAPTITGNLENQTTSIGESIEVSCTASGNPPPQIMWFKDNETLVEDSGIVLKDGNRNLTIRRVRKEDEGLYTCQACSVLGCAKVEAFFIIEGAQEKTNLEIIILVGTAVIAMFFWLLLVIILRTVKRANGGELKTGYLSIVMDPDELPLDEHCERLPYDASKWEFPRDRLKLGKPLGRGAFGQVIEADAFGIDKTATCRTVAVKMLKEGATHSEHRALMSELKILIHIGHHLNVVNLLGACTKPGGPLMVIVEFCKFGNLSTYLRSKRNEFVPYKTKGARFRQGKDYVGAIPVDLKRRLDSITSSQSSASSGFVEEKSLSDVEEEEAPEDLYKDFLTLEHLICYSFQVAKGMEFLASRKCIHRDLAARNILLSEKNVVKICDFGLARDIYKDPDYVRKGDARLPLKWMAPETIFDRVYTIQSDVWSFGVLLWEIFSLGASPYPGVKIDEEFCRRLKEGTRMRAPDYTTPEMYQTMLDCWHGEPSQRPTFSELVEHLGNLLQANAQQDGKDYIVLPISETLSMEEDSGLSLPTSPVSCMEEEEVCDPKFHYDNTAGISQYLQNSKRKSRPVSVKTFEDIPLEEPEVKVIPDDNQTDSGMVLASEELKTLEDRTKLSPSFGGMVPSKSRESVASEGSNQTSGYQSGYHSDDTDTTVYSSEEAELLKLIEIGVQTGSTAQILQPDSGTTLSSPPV
T1 sequence (P09619 33-1106, species assumed): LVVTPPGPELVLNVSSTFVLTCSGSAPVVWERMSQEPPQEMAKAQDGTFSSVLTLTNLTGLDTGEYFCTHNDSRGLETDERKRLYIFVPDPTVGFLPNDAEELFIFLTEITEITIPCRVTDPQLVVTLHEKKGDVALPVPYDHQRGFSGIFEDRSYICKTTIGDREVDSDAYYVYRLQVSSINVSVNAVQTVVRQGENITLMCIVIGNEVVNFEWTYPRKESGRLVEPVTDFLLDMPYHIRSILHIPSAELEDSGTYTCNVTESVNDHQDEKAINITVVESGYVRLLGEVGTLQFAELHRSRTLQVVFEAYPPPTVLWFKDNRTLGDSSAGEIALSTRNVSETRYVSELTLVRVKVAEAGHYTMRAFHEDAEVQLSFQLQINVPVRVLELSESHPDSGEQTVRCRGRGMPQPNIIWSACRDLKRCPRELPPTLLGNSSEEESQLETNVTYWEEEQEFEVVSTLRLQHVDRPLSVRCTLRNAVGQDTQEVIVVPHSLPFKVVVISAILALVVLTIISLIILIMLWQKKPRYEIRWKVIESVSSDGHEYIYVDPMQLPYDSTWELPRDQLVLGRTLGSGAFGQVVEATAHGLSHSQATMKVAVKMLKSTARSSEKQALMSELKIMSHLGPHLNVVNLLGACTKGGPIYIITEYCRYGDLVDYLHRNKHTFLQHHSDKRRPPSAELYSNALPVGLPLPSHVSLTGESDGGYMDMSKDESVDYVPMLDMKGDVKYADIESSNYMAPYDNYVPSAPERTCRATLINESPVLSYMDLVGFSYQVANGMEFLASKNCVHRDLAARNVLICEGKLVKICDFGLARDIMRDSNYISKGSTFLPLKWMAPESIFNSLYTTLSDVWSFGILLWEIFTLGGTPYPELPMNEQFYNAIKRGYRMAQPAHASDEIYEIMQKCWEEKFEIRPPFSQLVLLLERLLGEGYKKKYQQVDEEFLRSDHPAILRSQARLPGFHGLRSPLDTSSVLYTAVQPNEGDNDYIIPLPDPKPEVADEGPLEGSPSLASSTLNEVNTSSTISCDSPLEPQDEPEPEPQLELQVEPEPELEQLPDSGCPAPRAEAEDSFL

`O=C(Nc1ccccc1C(F)(F)F)Nc1cccc2c1ccn2Cc1ccnc2[nH]ccc12` [Example 50, 1-(2-Trifluoromethylphenyl)-3-[1-(1H-pyrrolo[2,3-b]pyridin-4-ylmethyl)-1H-indol-4-yl]urea hydrochloride]: the remaining activity at 0.1 µM at PDGFRβ is no less than 70%.

As to `Cl.O=C(Nc1cccc(OC(F)(F)F)c1)Nc1cccc2c1ccn2Cc1c[nH]c2ncccc12` [Example 21, 1-(3-Trifluoromethoxyphenyl)-3-[1-(1H-pyrrolo[2,3-b]pyridin-3-ylmethyl)-1H-indol-4-yl]urea hydrochloride], the remaining activity at 0.1 µM on PDGFRβ and at VEGFR2 was no less than 70% in each case. On c-Met, the “% c-Met kinase activity remains” value is “B (the percentage is greater or equal to 70%)”.

Consider `Cl.N#Cc1ccc(NC(=O)Nc2cccc3c2ccn3Cc2ccnc3[nH]ccc23)cc1` [Example 54, 1-(4-Cyanophenyl)-3-[1-(1H-pyrrolo[2,3-b]pyridin-4-ylmethyl)-1H-indol-4-yl]urea hydrochloride], for which the remaining activity at 0.1 µM on PDGFRβ and at VEGFR2 was no less than 70% each time. In addition, the “% c-Met kinase activity remains” value at c-Met is recorded as “B (the percentage is greater or equal to 70%)”.

On to `Cl.O=C(Nc1cccc(F)c1)Nc1cccc2c1ccn2Cc1ccnc2[nH]ccc12` [Example 35, 1-(3-Fluorophenyl)-3-[1-(1H-pyrrolo[2,3-b]pyridin-4-ylmethyl)-1H-indol-4-yl]urea hydrochloride], for which the remaining activity at 0.1 µM on PDGFRβ was no less than 70%; at VEGFR2 it was less than 70%. Besides, the “% c-Met kinase activity remains” value on c-Met was “A (the percentage of kinase activity remains is below 70%)”.

`Cl.O=C(Nc1ccc(OC(F)(F)F)cc1)Nc1cccc2c1ccn2Cc1c[nH]c2ncccc12` [Example 22, 1-(4-Trifluoromethoxyphenyl)-3-[1-(1H-pyrrolo[2,3-b]pyridin-3-ylmethyl)-1H-indol-4-yl]urea hydrochloride]: the remaining activity at 0.1 µM at PDGFRβ and at VEGFR2 was no less than 70% in each case. In addition, the “% c-Met kinase activity remains” value at c-Met is “A (the percentage of kinase activity remains is below 70%)”.

Take `Cl.O=C(Nc1cc(Br)ccc1F)Nc1cccc2c1ccn2Cc1c[nH]c2ncccc12` [Example 30, 1-(2-Fluoro-5-bromophenyl)-3-[1-(1H-pyrrolo[2,3-b]pyridin-3-ylmethyl)-1H-indol-4-yl]urea hydrochloride]: the remaining activity at 0.1 µM is no less than 70% on PDGFRβ and less than 70% on VEGFR2. Moreover, the “% c-Met kinase activity remains” value at c-Met is reported as “B (the percentage is greater or equal to 70%)”.

In the case of `COc1cccc(NC(=O)Nc2cccc3c2ccn3Cc2ccnc3[nH]ccc23)c1.Cl` [Example 47, 1-(3-Methoxyphenyl)-3-[1-(1H-pyrrolo[2,3-b]pyridin-4-ylmethyl)-1H-indol-4-yl]urea hydrochloride], the remaining activity at 0.1 µM on PDGFRβ was no less than 70%; at VEGFR2 it was less than 70%. On c-Met, the “% c-Met kinase activity remains” value is “A (the percentage of kinase activity remains is below 70%)”.

Turning to `COc1cccc(NC(=O)Nc2cccc3c2ccn3Cc2c[nH]c3ncccc23)c1.Cl` [Example 18, 1-(3-Methoxyphenyl)-3-[1-(1H-pyrrolo[2,3-b]pyridin-3-ylmethyl)-1H-indol-4-yl]urea hydrochloride], on VEGFR2, the remaining activity at 0.1 µM was less than 70%. The “% c-Met kinase activity remains” value on c-Met is “A (the percentage of kinase activity remains is below 70%)”.

In the case of `O=C(Nc1ccccc1Cl)Nc1cccc2c1ccn2Cc1c[nH]c2ncccc12` [Example 8, 1-(2-Chlorophenyl)-3-[1-(1H-pyrrolo[2,3-b]pyridin-3-ylmethyl)-1H-indol-4-yl]urea hydrochloride], the remaining activity at 0.1 µM on VEGFR2 is no less than 70%. The “% c-Met kinase activity remains” value on c-Met is “A (the percentage of kinase activity remains is below 70%)”.

Turning to `Cl.O=C(Nc1ccccc1Br)Nc1cccc2c1ccn2Cc1ccnc2[nH]ccc12` [Example 40, 1-(2-Bromophenyl)-3-[1-(1H-pyrrolo[2,3-b]pyridin-4-ylmethyl)-1H-indol-4-yl]urea hydrochloride], the remaining activity at 0.1 µM on VEGFR2 was less than 70%. In addition, the “% c-Met kinase activity remains” value at c-Met is “A (the percentage of kinase activity remains is below 70%)”.

Regarding `COc1ccc(F)c(NC(=O)Nc2cccc3c2ccn3Cc2c[nH]c3ncccc23)c1` [Example 31, 1-(2-Fluoro-5-methoxyphenyl)-3-[1-(1H-pyrrolo[2,3-b]pyridin-3-ylmethyl)-1H-indol-4-yl]urea hydrochloride], the remaining activity at 0.1 µM at PDGFRβ is no less than 70%.

For `Cl.O=C(Nc1ccccc1C(F)(F)F)Nc1cccc2c1ccn2Cc1c[nH]c2ncccc12` [Example 23, 1-(2-Trifluoromethylphenyl)-3-[1-(1H-pyrrolo[2,3-b]pyridin-3-ylmethyl)-1H-indol-4-yl]urea hydrochloride], the remaining activity at 0.1 µM on VEGFR2 is less than 70%. The “% c-Met kinase activity remains” value at c-Met is reported as “A (the percentage of kinase activity remains is below 70%)”.

Turning to `Cl.O=C(Nc1ccccc1)Nc1cccc2c1ccn2Cc1ccnc2[nH]ccc12` [Example 33, 1-Phenyl-3-[1-(1H-pyrrolo[2,3-b]pyridin-4-ylmethyl)-1H-indol-4-yl]urea hydrochloride], the remaining activity at 0.1 µM at VEGFR2 was less than 70%. The “% c-Met kinase activity remains” value on c-Met is on record as “B (the percentage is greater or equal to 70%)”.

On to `O=C(Nc1cccc(Cl)c1)Nc1cccc2c1ccn2Cc1c[nH]c2ncccc12` [Example 9, 1-(3-Chlorophenyl)-3-[1-(1H-pyrrolo[2,3-b]pyridin-3-ylmethyl)-1H-indol-4-yl]urea hydrochloride], for which the remaining activity at 0.1 µM at VEGFR2 was less than 70%. For the same compound, on c-Met, the “% c-Met kinase activity remains” value is “B (the percentage is greater or equal to 70%)”.

On to `Cl.O=C(Nc1cccc(F)c1)Nc1cccc2c1ccn2Cc1c[nH]c2ncccc12` [Example 6, 1-(3-Fluorophenyl)-3-[1-(1H-pyrrolo[2,3-b]pyridin-3-ylmethyl)-1H-indol-4-yl]urea hydrochloride], for which the remaining activity at 0.1 µM at VEGFR2 is less than 70%. Further, on c-Met, the “% c-Met kinase activity remains” value is on record as “B (the percentage is greater or equal to 70%)”.

In the case of `Cc1cccc(NC(=O)Nc2cccc3c2ccn3Cc2c[nH]c3ncccc23)c1.Cl` [Example 15, 1-(3-Methylphenyl)-3-[1-(1H-pyrrolo[2,3-b]pyridin-3-ylmethyl)-1H-indol-4-yl]urea hydrochloride], the remaining activity at 0.1 µM at VEGFR2 was less than 70%. Also, the “% c-Met kinase activity remains” value at c-Met is reported as “A (the percentage of kinase activity remains is below 70%)”.

As for `N#Cc1cccc(NC(=O)Nc2cccc3c2ccn3Cc2ccnc3[nH]ccc23)c1` [Example 53, 1-(3-Cyanophenyl)-3-[1-(1H-pyrrolo[2,3-b]pyridin-4-ylmethyl)-1H-indol-4-yl]urea hydrochloride], on PDGFRβ, the remaining activity at 0.1 µM was no less than 70%.

Take `Cl.N#Cc1cccc(NC(=O)Nc2cccc3c2ccn3Cc2c[nH]c3ncccc23)c1` [Example 26, 1-(3-Cyanophenyl)-3-[1-(1H-pyrrolo[2,3-b]pyridin-3-ylmethyl)-1H-indol-4-yl]urea hydrochloride]: the remaining activity at 0.1 µM at VEGFR2 was no less than 70%. In addition, the “% c-Met kinase activity remains” value at c-Met is “A (the percentage of kinase activity remains is below 70%)”.
